Values quoted from earlier work, collected in patent US8571804B2, “Disease treatment by predicting drug association” (Pharnext, priority 2007, dated 2013).

Tests used:
[1] = tested on: PMP22-transgenic CMT1A rat model

| SMILES | clinical features (CMT animal models) | clinical symptoms ([1]; compared with placebo-treated controls) | expression of PMP22 protein ([1]; transgenic rodents, antiprogestin treatment) |
| --- | --- | --- | --- |
| O=C1O[C@H]([C@@H](O)CO)C(O)=C1O [ascorbic acid] | improve clinical features |  |  |
| CN(C)c1ccc([C@H]2C[C@]3(C)[C@@H](CC[C@]3(O)CCCO)[C@@H]3CCC4=CC(=O)CCC4=C32)cc1 [onapristone] |  | significantly improved clinical symptoms | decreased expression of PMP22 protein |
